In patent US20240216310A1, “Rapid Onset Therapeutic Anti-Depression Ketosis Enabled by D-BetaHydroxyButyric Acid Systems, Methods and Compounds for Psilocybin co-administration” (American Ketone Therapeutics LLC, priority 2022, published 2024):

Key:
[1] = previously known exogenous ketone compounds, from literature; cited from earlier work
[2] = Continuous glucose monitoring (Abbot Libre CGM) with carbohydrate challenge; type: in vivo, human; conditions: 10 g given 45 minutes before 50 g carbohydrate ingestion; compared with unsupplemented ingestion
Description: FIG. 10 is a graphical illustration of continuous monitoring of body glucose levels. FIG. 10 depicts continuous glucose monitoring levels with carbohydrate challenge documented by Abbot Libre Continuous Glucose Monitoring (CGM) device. In this illustrative embodiment, glucose levels from a 50 g carbohydrate ingestion are depicted unaided by free D-BetaHydroxyButyric Acid on the left and repeated the following day with two 50 g carbohydrate ingestions accompanied by 10 g free D-BetaHydroxyButyric Acid administered 45 minutes before the carbohydrate insult. The data is noteworthy in that while the equivalent amount of identical (nacho chip platter) carbohydrates were consumed, the rapid glucose spike depicted in the unsupplemented ingestion is not found with 10 g D-BetaHydroxyButyric Acid accompaniment. […] As free D-BetaHydroxyButyric Acid can lower glucose while rapidly increasing ketone levels, it is believed that obtaining high ketones while lowering glucose will yield additional anti-depression benefits to high glucose sensitive individuals suffering from depression.

[3] = Preliminary data on anxiety and depression after D-BetaHydroxyButyric Acid administration; type: in vivo, human; conditions: individuals with mild to moderate depression, given in the absence of a salt or ester
Description: Moreover, dietary interventions for ketogenic diet treatment of bipolar disorder are yielding compelling results. The administration of the natural form of D-BetaHydroxyButyric Acid as an exogenous compound has rapid onset and direct benefits to brain bioenergenics. […] The claimed form of D-BetaHydroxyButyric Acid is bioidentical to the natural form of ketone generated endogenously and chemically distinguishable from the artificial ‘ketone salt’ and synthetic ‘ketone ester’. This application discloses two primary embodiments for the treatment of psychiatric depressive disorders: the use of bioidentical or ‘free D-BetaHydroxyButyric Acid’ alone as well as in combination with Psilocybin derived pharmaceuticals.

[4] = Continuous Ketone Meter (CKM) monitoring of body ketone levels and deep sleep; type: in vivo, human; conditions: 5 grams consumed 45 minutes prior to bedtime
Description: FIG. 11 is a graphical illustration of continuous monitoring of body ketone levels resulting in improved deep sleep time due to enhanced D-BHB levels according to the claimed invention. It is noteworthy that consumption of even small amounts of free D-BetaHydroxyButyric Acid can give rise to therapeutic ketosis levels as measured by Continuous Ketone Meter (CKM). […] While free D-BetaHydroxyButyric Acid is not a sedative, even small amounts can greatly improve deep sleep quantity and quality. It is an intended and foreseeable embodiment application to increase deep sleep with free D-BetaHydroxyButyric Acid with the aim of improving mental health and anti-depression resiliency.

[5] = Blood ketone levels by Abbott blood test strip after D-BHB oral drink; type: in vivo, human
Description: FIG. 8 is a graphical illustration of D-BHB exogenous ketone blood levels. FIG. 8 details rapid ketosis confirmed by Abbott blood test strip after 15 g D-BHB with palatability agent administered by oral drink. Blood ketone levels document rise from 0.1 mmol/L to 2.7 mmol/L. By supplementing an individual with exogenous ketone preparations incorporating the natural D-Beta-HydroxyButyric Acid (D-BHB) optionally combined with a palatability agent, internal body ketone levels rapidly rise when directly compared with non-supplementing individuals. The ketone body D-BHB is first and foremost an energy source, which is directly and preferentially metabolized by the brain. D-BHB is also active as a signaling mechanism and neuro-inflammation reduction agent, resulting in broad and beneficial mental health related benefits.
FIG. 9 is a graphical illustration of D-BHB exogenous ketone blood levels. FIG. 9 details rapid ketosis within 45 minutes confirmed by Abbott blood test strip after 10 g D-BHB with palatability agent administered by oral drink. Blood ketone levels document rise from 0.2 mmol/L to 1.8 mmol/L and 0.6 mmol/L to 1.9 mmol/L in a variety of test subjects. FIG. 9 reinforces the fact that supplementation by utilizing free D only BetaHydroxyButyric Acid without ketone salt or ketone ester is a reliable, reproducible method and system for rapid ketone level increase for mental health protection and maintenance. While amounts of free D only BetaHydroxyButyric Acid taken for mental health anti-depression effects may vary, it is an anticipated preferred embodiment that levels are between 5 and 30 grams of D only BetaHydroxyButyric Acid taken as needed for optimum anti-depression effects. Alternate embodiments may include lower or higher amounts, however, experimental evidence has confirmed optimal administration in this range.

[6] = Phase 2b clinical trial reported by Compass Pathways; cited from earlier work

C[C@@H](O)CCOC(=O)C[C@@H](C)O [ketone ester, (R)-3-hydroxybutyl (R)-3-hydroxybutyrate]
Ketone increase (blood level) [1]: higher ketone level response

CC(O)CC(=O)O [D-BHB, D-Beta-HydroxyButyric Acid]
Rapid glucose spike after carbohydrate ingestion [2]: not found
Reduction of anxiety and depression [3]: often benefit
Deep sleep quantity [4]: enhance the quantity of deep sleep obtained
Increase in body ketone level ([4]; CKM): 1.5 mmol/L
Time to rapid ketosis ([5]; 10 g D-BHB with palatability agent): ≤ 45 min
Blood ketone level after administration ([5]; 10 g D-BHB with palatability agent, test subject rising from 0.2 mmol/L): 1.8 mmol/L
Blood ketone level after administration ([5]; 10 g D-BHB with palatability agent, test subject rising from 0.6 mmol/L): 1.9 mmol/L
Blood ketone level after administration ([5]; 15 g D-BHB with palatability agent, rise from 0.1 mmol/L): 2.7 mmol/L

CN(C)CCc1c[nH]c2cccc(OP(=O)(O)O)c12 [Comp360]
Outcome in treatment-resistant depression [6]: promising results
